Consider two compounds from BindingDB's records for doi:10.1021/jm00038a004 (University of Arizona, 1994).

This experiment is described as follows: Binding affinity opioid receptor.

Broadly, the IC50 is the concentration at which inhibition is half-maximal. A higher IC50 goes with a need for much substance. The compound `Cc1cc(O)cc(C)c1[C@H](C)[C@H](N)C(=O)N[C@H](C)C(=O)N[C@@H](Cc1ccccc1)C(=O)N[C@@H](CC(=O)O)C(=O)N[C@H](C(=O)N[C@H](C(=O)NCC(N)=O)C(C)C)C(C)C` [(S)-3-((S)-2-{(R)-2-[(2S,3S)-2-Amino-3-(4-hydroxy-2,6-dimethyl-phenyl)-butyrylamino]-propionylamino}-3-phenyl-propionylamino)-N-{(S)-1-[(S)-1-(carbamoylmethyl-carbamoyl)-2-methyl-propylcarbamoyl]-2-methyl-propyl}-succinamic acid] gave an IC50 of 17.1 µM. This counts as double-digit micromolar.
The figure for `Cc1cc(O)cc(C)c1[C@H](C)[C@H](N)C(=O)N[C@H]1C(=O)NCC(=O)N[C@@H](Cc2ccccc2)C(=O)N[C@@H](C(=O)O)C(C)(C)SSC1(C)C` [(4S,7S,13S)-13-[(2S,3S)-2-Amino-3-(4-hydroxy-2,6-dimethyl-phenyl)-butyrylamino]-7-benzyl-3,3,14,14-tetramethyl-6,9,12-trioxo-1,2-dithia-5,8,11-triaza-cyclotetradecane-4-carboxylic acid] is 0.722 µM.
